The source of these data is patent publication US20240050560A1, “SELF-SUSTAINED RELEASE IMMUNE ADJUVANT SUSPENSION, PREPARATION METHOD THEREFOR, AND USE THEREOF” (priority 2020, published 2024).

Structures can show the parent of a compound that is named as a salt.

The conditions of data set [1]: 72 h after intratumoral injection, 6 mg/kg, CT26 mice.
Protocol: Experimental method: Mice were transplanted with mouse colon cancer (CT26) tumor on their backs, and randomly divided to 3 groups with 3 mice in each group for the study of drug distribution behavior. • Group 1: The mice were intratumorally injected with the micromolecule imiquimod hydrochloride with an injection dose of 6 mg/kg; • Group 2: The mice were intratumorally injected with imiquimod nano-particles (with average particle size of about 100 nm) encapsulated with polylactic-glycolic acid copolymer (PLGA) with an injection dose of 6 mg/kg; and • Group 3: The mice were intratumorally injected with imiquimod microparticles (the present formulation) with an injection dose of 6 mg/kg.
Data set [2] in a line: in vivo. As to conditions: mouse, whole blood, 6 mg/kg.
Protocol: Water-insoluble R837 powder was prepared into microparticles with a particle size of 1-3 microns, which were intratumorally injected and then monitored for the pharmacokinetics and intratumoral retention time.
Experimental method: Mice were transplanted with mouse colon cancer (CT26) tumor on their backs, and randomly divided to 3 groups with 3 mice in each group for the pharmacokinetic study.
Group 1: The mice were intratumorally injected with micromolecule imiquimod hydrochloride with an injection dose of 6 mg/kg.
Group 2: The mice were intratumorally injected with imiquimod/PLGA nano-particles (with an average particle size of about 100 nm) with an injection dose of 6 mg/kg.
Group 3: The mice were intratumorally injected with imiquimod microparticles (the present formulation) with an injection dose of 6 mg/kg.
Data set [3] is described as follows: in vivo. As to conditions: mouse, whole blood.
Description: Mice were inoculated with CT26 tumor cells on their back to establish a CT26 subcutaneous tumor model of mice. Mice with the same tumor size were equally divided to 3 groups with 3 mice in each group.
The subject of data set [4] is colon cancer (CT26) tumors. As to the kind of experiment: Oxaliplatin in combination with micron-sized imiquimod suspension, two-sided tumor model. It counts as in vivo, mice. Conditions: Day 15 after treatment; 30 μL intratumoral; oxaliplatin 4 mg/mL, imiquimod 6 mg/mL. Here is the method:
Mice were inoculated with different amounts of colon cancer (CT26) tumors on both sides of the back in mice (the inoculated amount on the left side was ⅕ of that on the right side) to establish a subcutaneous two-sided tumor model, wherein the tumor on the right side was deemed an in-situ tumor, and that on the left right was deemed a distal tumor. Once the in-situ tumors reached a size of about 100 mm^3, the mice were randomly divided into 4 groups, which were treated respectively.
On Day 1 of the treatment, the in-situ tumor was administered by intratumoral injection, wherein the concentration of oxaliplatin was 4 mg/mL, and the concentration of imiquimod was 6 mg/mL. After administration, the tumor volume in mice was recorded to plotted a growth curve of ice.

The subject of data set [5] is mouse colon CT26 tumor. The experiment in a line: Oxaliplatin chemotherapy combined with imiquimod micro-formulation, in-situ and distal tumor growth. It is filed as in vivo, mice. Conditions: intratumoral injection, chemotherapeutic alone. On the procedure:
The length and width of the tumor in mice were regularly measured, and the volume of tumor was calculated as follows: (length×(width) 2)/2.

Data set [6] can be described thus: Platinum in blood and organs (ICP-MS) after intratumoral oxaliplatin with or without imiquimod suspension. As to conditions: platinum in blood after intratumoral injection. An excerpt:
Mice were inoculated with colon cancer (CT26) tumor cells on the back of the tumor in mice to establish a subcutaneous tumor model in mice.

For data set [7], the system named is tumor cells. As to the kind of experiment: Micron-sized imiquimod suspension in combination with ethanol ablation, subcutaneous tumor model. It is filed as in vivo, mice. As to conditions: imiquimod suspension 12 mg/mL peritumoral; absolute ethanol 30 μL intratumoral. An excerpt: First, a subcutaneous tumor model in mice was established. In particular, mice were inoculated with tumor cells on their back. Once the tumors grew to a volume of 100 mm^3, the mice were randomly divided into 5 groups with 5 mice in each group.
The mice were monitored for the changes in tumor volumes, and the curves of tumor growth were plotted.

Broadly, the half-life is the time needed for the level to fall by half in the phase considered. Broadly, the AUC is the area under the concentration-time curve, a measure of exposure. Low values mean less exposure, high ones more exposure. For orientation: Cmax means the peak of the concentration-time curve. What is called Tmax is the time at which the peak concentration occurs. For `CC(C)Cn1cnc2c(N)nc3ccccc3c21` [Micromolecule imiquimod hydrochloride, imiquimod hydrochloride], the “Retention of imiquimod in tumor and main organs (FIG. 3)” value in data set [1] was “extremely low overall retention”. The same molecule showed a half-life in data set [2] of 12 h. Where the note is “at 48 h and 72 h after intratumoral injection 6 mg/kg”, the “Blood concentration of drug” value is recorded as “below the limit of detection”. Also, the “Average Retention Time” value (intratumoral injection 6 mg/kg, CT26 mice, average of 3) came to 11 h. In addition, in data set [3], the AUC was determined as 140 ng·h/mL, the Cmax worked out at 17.4 ng/mL, the time to peak (Tmax) was determined as 0.5 h and the half-life was 7.7 h.

As to `O=C1[O][Pt]2([NH][C@@H]3CCCC[C@H]3[NH]2)[O]C1=O` [OXA, oxaliplatin], in data set [4], the “Tumor Inhibition Rate, Distant tumor” value came out at 41.87% and the “Tumor Inhibition Rate, In-situ tumor” value amounted to 69.56%. Besides, in data set [5], the “Growth of distal tumors (FIG. 11)” value is “does not produce significant inhibitory effect” and the “Growth of in-situ tumors (FIG. 10)” value was “can inhibit the growth of in-situ tumors”. In addition, the “Tmax (H)” value in data set [6] came out at 3 H.

`CCO` [absolute ethanol, ethanol]: in data set [7], the “Tumor growth / tumor volumes (FIG. 14)” value is “not highly different from those of the control group”.
